Assays:
[1] = biological target: T1, recombinant human c-Met/HGF receptor (Homo sapiens, UniProt P08581); assay: In vitro receptor tyrosine kinase assay (DELFIA), c-Met/HGF receptor; format: biochemical; details: read-out: CMET IC50
T1 construct: His tag (pBlueBacHis2A vector); made in house; host or cells: Hi-5 cells (Trichoplusia ni), baculovirus
Experimental: Cell pellets were frozen at −80° C. until purification was performed.
(§1) The coated plates were washed and stored at 4° C. […] After incubation, the kinase reactions were quenched with EDTA and the plates were washed.

DU145 = DU145 scattering inhibition (HGF dependent scattering); format: cell-based; details: Homo sapiens, DU-145; HGF dependent scattering, DU145 cells; read-out: DU145 SCATTERING INHIB IC50
Source text: (§2) HGF has well known activity in terms of inducing scattering and migration (wound healing) (Wells et al., Cell Motil Cytoskeleton. 2005 November 62(3):180-94; Miura et al., Urology 2001 December 58(6):1064-9; Nishimura et al., Int J Urol. 1998 May 5(3):276-81; Wang et al., Mol Cancer Ther. 2003 November; 2(11):1085-92; and Christensen et al., Cancer Res. 2003 Nov. 1; 63(21):7345-55).

A549 = A549 wound healing inhibition (HGF dependent migration); format: cell-based; details: Homo sapiens, A549 cells, read-out: A549 WOUND HEALING INHIB IC50
Source text: as §2

VEGF receptor KDR = biological target: T2, VEGF receptor KDR (Homo sapiens, UniProt P35968); assay: In vitro receptor tyrosine kinase assay (DELFIA), VEGF receptor KDR; format: biochemical; details: read-out: VEGFR IC50
T2 construct: made in house; host or cells: Sf9 cells (Spodoptera frugiperda), baculovirus
Experimental: In the case of VEGF receptor KDR a 1.6-kb cDNA corresponding to the catalytic domain of VEGFR2 or KDR (Genbank accession number AF035121 amino acid 806 to 1356) was cloned into the Pst I site of the pDEST20 Gateway vector (Invitrogen) for the production of a GST-tagged version of that enzyme.
The GST-VEGFR2806-1356 protein was expressed in […] (Spodoptera frugiperda) upon infection with recombinant baculovirus construct. […] Cell pellets were frozen at −80° C. until purification was performed.
The supernatant (cell extract) was used as starting material for purification of GST-VEGFR2806-1356.
The supernatant was loaded onto a GST-agarose column (Sigma) equilibrated with PBS pH 7.3. Following a four column volume (CV) wash with PBS pH 7.3+1% Triton X-100 and 4 CV wash with buffer B (50 mM Tris pH 8.0, 20% glycerol and 100 mM NaCl), bound proteins were step eluted with 5 CV of buffer B supplemented with 5 mM DTT and 15 mM glutathion. GST-VEGFR2806-1356 enriched fractions from this chromatography step were pooled based on U.V. trace i.e. fractions with high O.D.280. Final GST-VEGFR2806-1356 protein preparations concentrations were about 0.7 mg/ml with purity approximating 70%.
as §1

T1 sequence (P08581 1078-1337): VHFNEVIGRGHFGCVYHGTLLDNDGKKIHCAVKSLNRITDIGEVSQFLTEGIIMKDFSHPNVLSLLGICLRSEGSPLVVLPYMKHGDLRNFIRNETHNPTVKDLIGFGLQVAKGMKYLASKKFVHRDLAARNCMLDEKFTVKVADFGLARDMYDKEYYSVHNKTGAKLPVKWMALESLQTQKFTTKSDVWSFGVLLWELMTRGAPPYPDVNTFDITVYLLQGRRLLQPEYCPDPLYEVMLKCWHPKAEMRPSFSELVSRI
T2 sequence (P35968 806-1356): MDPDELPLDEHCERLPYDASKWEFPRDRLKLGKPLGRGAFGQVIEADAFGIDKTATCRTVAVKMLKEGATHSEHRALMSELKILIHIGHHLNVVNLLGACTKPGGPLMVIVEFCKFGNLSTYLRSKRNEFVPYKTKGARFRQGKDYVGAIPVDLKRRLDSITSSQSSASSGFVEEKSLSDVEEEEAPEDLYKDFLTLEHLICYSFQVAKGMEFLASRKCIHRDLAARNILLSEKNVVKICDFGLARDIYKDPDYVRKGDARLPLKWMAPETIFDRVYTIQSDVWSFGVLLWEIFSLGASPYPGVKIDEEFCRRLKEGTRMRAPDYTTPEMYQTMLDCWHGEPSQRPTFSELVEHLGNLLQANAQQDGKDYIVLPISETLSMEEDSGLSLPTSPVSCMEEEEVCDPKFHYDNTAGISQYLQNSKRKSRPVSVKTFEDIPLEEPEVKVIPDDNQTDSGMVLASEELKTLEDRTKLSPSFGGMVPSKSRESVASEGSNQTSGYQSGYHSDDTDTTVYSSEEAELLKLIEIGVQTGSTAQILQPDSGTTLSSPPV

Row | SMILES | IC50 [1] [nM] | IC50 (DU145) [nM] | IC50 (A549) [nM] | IC50 (VEGF receptor KDR) [nM]
1 | CN(C)[C@@H]1CCN(C(=O)c2cc3nccc(Oc4ccc(NC(=O)CC(=O)Nc5ccccc5)cc4F)c3s2)C1 [drawing 294] | 50 to 250 | 1000 to 5000 | < 1000 | 50 to 250
2 | O=C1N(C(=S)Nc2ccc(Oc3ccnc4cc(-c5cn(CCN6CCCC6)cn5)sc34)c(F)c2)CCN1c1ccc(F)cc1 | < 50 | < 1000 | < 1000 | < 50
3 | COc1ccccc1NC(=O)CC(=O)Nc1ccc(Oc2ccnc3cc(-c4cccc(CN(C)C)c4)sc23)c(F)c1 | < 50 | < 1000 | < 1000 | 50 to 250
4 | O=C(Nc1ccc(Oc2ccnc3cc(-c4cn(CCCN5CCCC5)cn4)sc23)c(F)c1)N1CCN(c2ccc(F)cc2)C1=O | < 50 | < 1000 | < 1000 | < 50
5 | CCn1cnc(-c2cc3nccc(Oc4ccc(NC(=O)CC(=O)Nc5ccccc5)cc4F)c3s2)c1C | < 50 | < 1000 | < 1000 | < 50
6 | CN(C(=O)CC(=O)Nc1ccc(Oc2ccnc3cc(-c4cn(C)cn4)sc23)c(F)c1)c1ccccc1 | 50 to 250 | < 1000 | < 1000 | < 50
7 | COc1ccccc1NC(=O)CC(=O)Nc1ccc(Oc2ccnc3cc(-c4ccc(CN5CCCC5)cc4)sc23)c(F)c1 [drawing 295] | 50 to 250 | < 1000 | 1000 to 5000 | < 50
8 | Cn1cnc(-c2cc3nccc(Oc4ccc(NC(=O)C5(C(=O)Nc6ccccc6F)CC5)cc4F)c3s2)c1 | < 50 | < 1000 | 1000 to 5000 | < 50
9 | CCn1cnc(-c2cc3nccc(Oc4ccc(NC(=O)C(=O)NCCc5ccccc5OC)cc4F)c3s2)c1 | 50 to 250 | > 10000 | 1000 to 5000 | < 50
10 | O=C(CC(=O)Nc1ccc(Oc2ccnc3cc(-c4cccc[n+]4[O-])sc23)c(F)c1)Nc1ccccc1 | < 50 | < 1000 | < 1000 | < 50
11 | CCn1cnc(-c2cc3nccc(Oc4ccc(NC(=O)CC(=O)Nc5ccccc5O)cc4F)c3s2)c1 | < 50 | 1000 to 5000 | 1000 to 5000 | < 50
12 | CCn1cc(-c2cc3nccc(Oc4ccc(NC(=O)CC(=O)Nc5ccccc5OC)cc4F)c3s2)nc1C | 50 to 250 | < 1000 | < 1000 | < 50
13 | COc1ccccc1NC(=O)CC(=O)Nc1ccc(Oc2ccnc3cc(C4=CCCN(C)C4)sc23)c(F)c1 | 50 to 250 | 1000 to 5000 | 1000 to 5000 | 250 to 500
14 | O=C(Nc1ccc(Oc2ccnc3cc(-c4cn(CCN5CCCC5)cn4)sc23)c(F)c1)C1(C(=O)Nc2ccccc2F)CC1 | < 50 | < 1000 | 1000 to 5000 | < 50
15 | CC(C(=O)Nc1ccccc1)C(=O)Nc1ccc(Oc2ccnc3cc(-c4nccn4C)sc23)c(F)c1 (centres unmarked) [drawing 286] | 50 to 250 | 1000 to 5000 | 1000 to 5000 | < 50
16 | CCn1cnc(-c2cc3nccc(Oc4ccc(NC(=O)C5(C(=O)Nc6ccccc6F)CC5)cc4F)c3s2)c1 | < 50 | < 1000 | < 1000 | < 50
17 | CN1CCN(CCN(C)Cc2ccc(-c3cc4nccc(Oc5ccc(NC(=O)CC(=O)Nc6ccc(F)cc6)cc5F)c4s3)cc2)CC1 | < 50 | < 1000 | < 1000 | < 50
18 | Cn1ccnc1-c1cc2nccc(Oc3ccc(NC(=O)N4CCN(c5ccccc5)C4=O)cc3F)c2s1 | < 50 | < 1000 | < 1000 | < 50
19 | O=C(Cn1cnc(-c2cc3nccc(Oc4ccc(NC(=O)CC(=O)Nc5ccccc5)cc4F)c3s2)c1)NCCCN1CCCC1 | < 50 | 5000 to 10000 | 1000 to 5000 | < 50
20 | CCn1cnc(-c2cc3nccc(Oc4ccc(NC(=O)CC(=O)Nc5ccccc5C(F)(F)F)cc4F)c3s2)c1 | 50 to 250 | < 1000 | 1000 to 5000 | < 50
21 | Cn1cnc(-c2cc3nccc(Oc4ccc(NC(=O)C5CCN(c6ccccc6F)C5=O)cc4F)c3s2)c1 (centres unmarked) | 50 to 250 | 1000 to 5000 | < 1000 | 250 to 500

Row | SMILES | IC50 [1] [nM] | IC50 (DU145) [nM] | IC50 (A549) [nM] | IC50 (VEGF receptor KDR) [nM]
22 | CN(C)CCn1cnc(-c2cc3nccc(Oc4ccc(NC(=O)C5(C(=O)Nc6ccccc6F)CC5)cc4F)c3s2)c1 | < 50 | < 1000 | < 1000 | < 50
23 | Cn1cncc1-c1cc2nccc(Oc3ccc(NC(=O)CC(=O)Nc4cccnc4)cc3F)c2s1 [drawing 290] | 50 to 250 | 1000 to 5000 | 1000 to 5000 | < 50
24 | COc1ccccc1NC(=O)CC(=O)Nc1ccc(Oc2ccnc3cc(-c4c[nH]cn4)sc23)c(F)c1 | 50 to 250 | < 1000 | < 1000 | 50 to 250
25 | CN(C)CC/C=C\c1cc2nccc(Oc3ccc(NC(=O)CC(=O)N(C)c4ccccc4)cc3F)c2s1 | 50 to 250 | 1000 to 5000 | 1000 to 5000 | 50 to 250
26 | Cn1ccnc1-c1cc2nccc(Oc3ccc(NC(=O)N4CCN(c5ccc(F)cc5)C4=O)cc3F)c2s1 | 50 to 250 | < 1000 | < 1000 | < 50
27 | CN1CCN(Cc2ccc(-c3cc4nccc(Oc5ccc(NC(=O)CC(=O)N(C)c6ccccc6)cc5F)c4s3)cc2)CC1 | 50 to 250 | < 1000 | 1000 to 5000 | < 50
28 | CN(c1ccc(NC(=O)C2CCN(c3ccccc3)C2=O)cc1F)c1ccnc2cc(-c3cn(C)cn3)sc12 (centres unmarked) | 50 to 250 | 1000 to 5000 | 1000 to 5000 | > 500
29 | O=C(CC(=O)Nc1ccc(Oc2ccnc3cc(-c4ccc(CN5CCNCC5)cc4)sc23)c(F)c1)Nc1ccccc1 | < 50 | < 1000 | 1000 to 5000 | < 50
30 | CN1CCN(CCN(C)Cc2ccc(-c3cc4nccc(Oc5ccc(NC(=O)C6(C(=O)Nc7ccc(F)cc7)CC6)cc5F)c4s3)cc2)CC1 | < 50 | < 1000 | 1000 to 5000 | < 50
31 | CCn1cnc(-c2cc3nccc(Oc4ccc(NC(=O)C5CCN(c6ccccc6)C5=O)cc4F)c3s2)c1 (centres unmarked) | < 50 | < 1000 | < 1000 | < 50
32 | CN1CCN(CCN(C)Cc2ccc(-c3cc4nccc(Oc5ccc(NC(=O)CC(=O)N(C)c6ccc(F)cc6)cc5F)c4s3)cc2)CC1 | < 50 | < 1000 | 1000 to 5000 | < 50
33 | Cn1ccnc1-c1cc2nccc(Sc3ccc(NC(=O)N4CCN(c5ccccc5)C4=O)cc3)c2s1 | < 50 | < 1000 | < 1000 | 50 to 250
34 | CCn1cnc(-c2cc3nccc(Oc4ccc(NC(=O)C5(C(=O)N(C)c6ccc(F)cc6)CC5)cc4F)c3s2)c1 | 250 to 500 | > 10000 | > 10000 | < 50
35 | Cn1ccnc1-c1cc2nccc(Oc3ccc(NC(=O)CC(=O)OC4CCNCC4)cc3F)c2s1 | > 500 | > 10000 | > 10000 | > 500
36 | COc1ccccc1NC(=O)CC(=O)Nc1ccc(Oc2ccnc3cc(C#CCN(C)C)sc23)c(F)c1 | 50 to 250 | > 10000 | > 10000 | 50 to 250
37 | CN(C)CCn1cnc(-c2cc3nccc(Oc4ccc(NC(=O)N5CCN(c6ccc(F)cc6)C5=O)cc4F)c3s2)c1 | < 50 | < 1000 | < 1000 | < 50
38 | COc1ccccc1NC(=O)CC(=O)Nc1ccc(Oc2ccnc3cc(-c4nccn4C)sc23)c(F)c1 [drawing 284] | < 50 | 1000 to 5000 | < 1000 | < 50
39 | Cn1ccnc1-c1cc2nccc(Oc3ccc(NC(=O)CC(=O)Nc4cccnc4)cc3F)c2s1 [drawing 282] | 250 to 500 | 1000 to 5000 | < 1000 | < 50
40 | Cn1cnc(-c2cc3nccc(Oc4ccc(NC(=O)C5CCN(c6cccnc6)C5=O)cc4F)c3s2)c1 (centres unmarked) | 250 to 500 | 1000 to 5000 | 1000 to 5000 | 250 to 500
41 | CN1CC=C(c2cc3nccc(Oc4ccc(NC(=O)CC(=O)N(C)c5ccccc5)cc4F)c3s2)CC1 | < 50 | 1000 to 5000 | 1000 to 5000 | 50 to 250

From patent US8329726B2, “Inhibitors of VEGF receptor and HGF receptor signaling” (MethylGene Inc., priority 2005, dated 2012)
